# Read-outs that look alike come from different tables or passages of the source.
# Experiments:
# A1 adenosine receptors = molecular target: T1, A1 adenosine receptors (Rattus norvegicus, UniProt P25099); assay: Displacement of specific [3H]R-PIA binding in rat brain membranes; conditions: for inhibition at 100 µM: Table 3, read-out: rA1 % inhibition (percentage of specific binding displaced); for inhibition at 100 µM / rA1 percentage of specific binding displaced: at 10^−4 M; for Ki: Table 2, compounds 33-58, [3H]R-PIA, rat brain membranes, n = 3-5, read-out: rA1 Ki ± S.E.M.; for rA1 percentage of specific binding displaced: Table 2
# T1 construct: from tissue
# T1 sequence (P25099 1-326): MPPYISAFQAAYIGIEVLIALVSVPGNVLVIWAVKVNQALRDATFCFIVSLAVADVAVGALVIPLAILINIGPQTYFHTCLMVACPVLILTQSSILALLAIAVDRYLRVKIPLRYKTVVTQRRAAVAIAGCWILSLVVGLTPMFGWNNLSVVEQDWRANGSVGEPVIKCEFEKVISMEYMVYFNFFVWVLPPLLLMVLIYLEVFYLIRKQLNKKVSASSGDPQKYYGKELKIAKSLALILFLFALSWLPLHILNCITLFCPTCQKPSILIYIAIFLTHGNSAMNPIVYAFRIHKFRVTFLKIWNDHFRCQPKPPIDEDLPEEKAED
# A2A adenosine receptors [1] = molecular target: T2, A2A adenosine receptors (Rattus norvegicus, UniProt P30543); assay: Displacement of specific [3H]CGS 21680 binding in rat striatal membranes; conditions: for Ki: [3H]CGS 21680, rat striatal membranes, n = 3-6, read-out: rA2A Ki ± S.E.M.; for rA2A displacement of specific binding (class d): at 10^−4 M
# T2 construct: from tissue
# human A3 receptors = molecular target: T3, human A3 receptors (Homo sapiens, UniProt P0DMS8); assay: Displacement of specific [125I]AB-MECA binding at human A3 receptors expressed in HEK cells, in membranes; conditions: for Ki: [125I]AB-MECA, HEK cell membranes, n = 3-4, read-out: hA3 Ki ± S.E.M.; for rA1/hA3: ratio of affinities rat A1 vs human A3
# T3 construct: expressed in transfected cells
# T3 sequence (P0DMS8 1-318): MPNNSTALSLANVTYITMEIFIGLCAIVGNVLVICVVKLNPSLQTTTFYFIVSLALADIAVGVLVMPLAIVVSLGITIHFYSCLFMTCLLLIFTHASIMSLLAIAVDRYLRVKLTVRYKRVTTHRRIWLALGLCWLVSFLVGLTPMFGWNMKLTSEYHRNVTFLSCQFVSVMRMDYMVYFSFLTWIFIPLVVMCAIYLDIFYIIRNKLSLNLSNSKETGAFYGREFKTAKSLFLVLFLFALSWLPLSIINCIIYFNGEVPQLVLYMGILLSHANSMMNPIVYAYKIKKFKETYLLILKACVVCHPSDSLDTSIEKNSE
# rat A3 receptors = molecular target: T4, rat A3 receptors (Rattus norvegicus, UniProt P28647); assay: Displacement of specific [125I]AB-MECA binding at rat A3 receptors stably expressed in CHO cells; conditions: for Ki / rA3/hA3 / rA1/rA3: Table 4; for Ki: [125I]AB-MECA, CHO cells, n = 3-5, read-out: rA3 Ki; for rA3/hA3: ratio of affinities at rat vs. human A3 receptors; for rA1/rA3: ratio of affinities rat A1 vs rat A3
# T4 construct: expressed in transfected cells
# T4 sequence (P28647 1-320): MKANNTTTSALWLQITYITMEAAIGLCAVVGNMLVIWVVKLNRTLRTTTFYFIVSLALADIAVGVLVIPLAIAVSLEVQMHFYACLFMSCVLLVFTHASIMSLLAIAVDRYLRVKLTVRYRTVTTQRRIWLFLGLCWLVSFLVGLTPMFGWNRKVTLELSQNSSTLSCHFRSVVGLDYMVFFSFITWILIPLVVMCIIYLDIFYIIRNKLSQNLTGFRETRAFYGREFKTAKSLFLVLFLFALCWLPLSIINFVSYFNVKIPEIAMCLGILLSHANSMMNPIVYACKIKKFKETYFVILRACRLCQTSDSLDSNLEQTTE
# A2A adenosine receptors [2] = molecular target: T2, A2A adenosine receptors; conditions: Table 3, cited from earlier work; for Ki: compounds 59, 68, values taken from van Rhee et al. 1996 and Jiang et al. 1997, read-out: rA2A Ki ± S.E.M.
# T2 sequence (P30543 whole entry): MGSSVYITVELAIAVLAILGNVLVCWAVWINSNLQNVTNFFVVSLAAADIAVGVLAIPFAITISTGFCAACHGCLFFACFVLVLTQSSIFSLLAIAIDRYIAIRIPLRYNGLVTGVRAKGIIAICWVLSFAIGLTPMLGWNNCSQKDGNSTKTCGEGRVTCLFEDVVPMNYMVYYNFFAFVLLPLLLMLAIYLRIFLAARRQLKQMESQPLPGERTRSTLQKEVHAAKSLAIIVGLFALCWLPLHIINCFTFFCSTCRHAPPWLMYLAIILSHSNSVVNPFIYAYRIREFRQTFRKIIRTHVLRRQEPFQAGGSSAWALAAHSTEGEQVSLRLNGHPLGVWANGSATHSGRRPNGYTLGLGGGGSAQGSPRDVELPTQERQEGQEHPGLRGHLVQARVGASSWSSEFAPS
Compound,inhibition at 100 µM (A1 adenosine receptors),Ki (A2A adenosine receptors [1]; Table 3),Ki (human A3 receptors; Table 3),rA1/hA3 (human A3 receptors; Table 3),Ki (rat A3 receptors),rA3/hA3 (rat A3 receptors),rA1/rA3 (rat A3 receptors),Ki (A1 adenosine receptors),"Ki (A2A adenosine receptors [1]; Table 2, compounds 33-58)","Ki (human A3 receptors; Table 2, compounds 33-58)",rA1/hA3 (human A3 receptors; Table 2),rA1 percentage of specific binding displaced (A1 adenosine receptors),affinity at rat and human A3 receptors (in words) (rat A3 receptors; both species),rA2A displacement of specific binding (class d) (A2A adenosine receptors [1]; Table 3),rA2A displacement of specific binding (class d) (A2A adenosine receptors [1]; Table 2),Ki (A2A adenosine receptors [2]),"rA2A displacement of specific binding (class d) (A2A adenosine receptors [2]; at 10^−4 M, compound 69, value taken from the literature)"
"CCOC(=O)c1c(-c2ccccc2)nc(C)c(C(=O)SCC)c1CC [Compound 36, 5-Ethyl 2-methyl-4-ethyl-3-(ethylsulfanylcarbonyl)-6-phenylpyridine-5-carboxylate]",,,,,1470 ± 340 nM,34,10,14800 ± 3500 nM,14900 ± 4100 nM,42.9 ± 8.8 nM,340,,,,,,
"CCCc1c(C(=O)SCC)c(C)nc(-c2ccccc2)c1C(=O)OCC [Compound 38, 5-Ethyl-2-methyl-4-propyl-3-(ethylsulfanylcarbonyl)-6-phenylpyridine-5-carboxylate]",,,,,650 ± 70 nM,3.4,>100,,7530 ± 2700 nM,194 ± 51 nM,>700,29 ± 6% (10^−4),,,,,
"CCSC(=O)c1c(C)nc(-c2ccccc2)c(C(=O)OCc2ccccc2)c1CC [Compound 39, 5-Benzyl 2-methyl-4-ethyl-3-(ethylsulfanylcarbonyl)-6-phenylpyridine-5-carboxylate]",,,,,1800 ± 320 nM,0.69,>50,,12800 ± 2900 nM,2610 ± 960 nM,>40,20 ± 8% (10^−4),,,,,
"CCOC(=O)c1c(-c2ccccc2)nc(CC)c(C(=O)SCC)c1CC [Compound 48, 5-Ethyl 2,4-diethyl-3-(ethylsulfanylcarbonyl)-6-phenylpyridine-5-carboxylate]",,,,,410 ± 48 nM,21,>100,,6130 ± 1280 nM,20 ± 1.9 nM,>3000,41 ± 6% (10^−4),,,,,
"CCSC(=O)c1c(CC)nc(-c2ccccc2)c(C(=O)OCCO)c1CC [Compound 50, 5-Hydroxylethyl 2,4-diethyl-3-(ethylsulfanylcarbonyl)-6-phenylpyridine-5-carboxylate]",,,,,2870 ± 480 nM,15,6.1,17400 ± 5290 nM,10000 ± 3000 nM,188 ± 61 nM,93,,,,,,
"CCCc1nc(-c2ccccc2)c(C(=O)OCC)c(CC)c1C(=O)SCC [Compound 55, 5-Ethyl 2-propyl-4-ethyl-3-(ethylsulfanylcarbonyl)-6-phenylpyridine-5-carboxylate]",,,,,590 ± 40 nM,18,28,16700 ± 3000 nM,2820 ± 820 nM,33.3 ± 10.7 nM,500,,,,,,
CCOC(=O)C1=C(C)NC(c2ccccc2)=C(C(=O)OCC)C1C (stereo not drawn) [Compound 59],,,,,,,,,,,,,,,,35900 ± 15300 nM,
CCOC(=O)C1=C(C)NC(c2ccccc2)=C(C(=O)OCC)C1C=Cc1ccccc1 (stereo not drawn) [Compound 68],,,,,,,,,,,,,,,,4770 ± 290 nM,
CCOC(=O)C1=C(C)NC(c2ccccc2)=C(C(=O)OCc2ccccc2)C1C#Cc1ccccc1 (stereo not drawn) [Compound 69],,,,,,,,,,,,,,,,,d (10^−4) (Displacement of < 10% of specific binding at the indicated concentration (M).)

# More lines, main results first:
inhibition at 100 µM (A1 adenosine receptors),Ki (A2A adenosine receptors [1]; Table 3),Ki (human A3 receptors; Table 3),rA1/hA3 (human A3 receptors; Table 3),Ki (rat A3 receptors),rA3/hA3 (rat A3 receptors),rA1/rA3 (rat A3 receptors),Ki (A1 adenosine receptors),"Ki (A2A adenosine receptors [1]; Table 2, compounds 33-58)","Ki (human A3 receptors; Table 2, compounds 33-58)",rA1/hA3 (human A3 receptors; Table 2),rA1 percentage of specific binding displaced (A1 adenosine receptors),affinity at rat and human A3 receptors (in words) (rat A3 receptors; both species),Compound,rA2A displacement of specific binding (class d) (A2A adenosine receptors [1]; Table 3),rA2A displacement of specific binding (class d) (A2A adenosine receptors [1]; Table 2),Ki (A2A adenosine receptors [2]),"rA2A displacement of specific binding (class d) (A2A adenosine receptors [2]; at 10^−4 M, compound 69, value taken from the literature)"
45 ± 2%,14300 ± 4200 nM,1650 ± 400 nM,>50,2800 ± 280 nM,1.7,>20,,,,,,,"CCSC(=O)C1=C(C)NC(c2ccccc2)=C(C(=O)OCc2ccccc2)C1CC (racemic) [Compound 65, 5-Benzyl 2-methyl-4ethyl-6-phenyl-3-(ethylsulfanylcarbonyl)-1,4-(±)-dihydropyridine-5-carboxylate]",,,,
34 ± 7%,29100 ± 9900 nM,907 ± 44 nM,>50,2520 ± 880 nM,2.8,>30,,,,,,,"CCOC(=O)C1=C(c2ccccc2)NC(CC)=C(C(=O)SCC)C1CC (racemic) [Compound 75, 5-Ethyl 2,4-diethyl-6-phenyl-3-(ethylsulfanylcarbonyl)-1,4-(±)-dihydropyridine-5-carboxylate]",,,,
26 ± 19%,,2090 ± 40 nM,>20,2730 ± 140 nM,1.3,>30,,,,,,,"CCCC1=C(C(=O)SCC)C(CC)C(C(=O)OCC)=C(c2ccccc2)N1 (racemic) [Compound 76, 5-Ethyl 2-propyl-4-ethyl-6-phenyl-3-(ethylsulfanylcarbonyl)-1,4-(±)-dihydropyridine-5-carboxylate]",d (10^−4) (Displacement of < 10% of specific binding at the indicated concentration (M).),,,
,,,,113 ± 12 nM,6.0,140,18200 ± 9000 nM,,24.5 ± 4 nM,7400,,high affinity at both species,"CCCOC(=O)c1c(-c2ccccc2)nc(CC)c(C(=O)SCC)c1CCC [Compound 49b, 5-Propyl 2-ethyl-4-propyl-3-(ethylsulfanylcarbonyl)-6-phenylpyridine-5-carboxylate]",,d (10^−4) (Displacement of <10% of specific binding at the indicated concentration (M).),,
,,,,440 ± 33 nM,33,19,8200 ± 2960 nM,8910 ± 970 nM,13.4 ± 1.5 nM,610,,,"CCOC(=O)c1c(-c2cccc(Cl)c2)nc(CC)c(C(=O)SCC)c1CC [Compound 51, 5-Ethyl 2,4-diethyl-3-(ethylsulfanylcarbonyl)-6-(m-chlorophenyl)pyridine-5-carboxylate]",,,,
,,,,2800 ± 220 nM,0.83,>20,55300 ± 14700 nM,26100 ± 6200 nM,4010 ± 2490 nM,14,,,"CCOC(=O)c1c(C2CCCC2)nc(CC)c(C(=O)SCC)c1CC [Compound 52, 5-Ethyl 2,4-diethyl-3-(ethylsulfanylcarbonyl)-6-cyclopentylpyridine-5-carboxylate]",,,,
,,,,294 ± 6 nM,18,28,8220 ± 1210 nM,15700 ± 4400 nM,15.9 ± 5.4 nM,520,,,"CCCSC(=O)c1c(CC)nc(-c2ccccc2)c(C(=O)OCC)c1CC [Compound 53, 5-Ethyl 2,4-diethyl-3-propylsulfanylcarbonyl-6-phenylpyridine-5-carboxylate]",,,,
,,,,2260 ± 50 nM,64,18,40300 ± 7400 nM,,35 ± 9.1 nM,1200,,,"CCCCc1nc(-c2ccccc2)c(C(=O)OCC)c(CC)c1C(=O)SCC [Compound 57, 5-Ethyl 2-butyl-4-ethyl-3-(ethylsulfanylcarbonyl)-6-phenylpyridine-5-carboxylate]",,d (10^−4) (Displacement of <10% of specific binding at the indicated concentration (M).),,

# From patent publication US6376521B1, “A3 adenosine receptor antagonists” (The United States of America as represented by the …, priority 1998, dated 2002)
